Assays:
[1] = system: native porcine B7-2 molecule expressed on the surface of porcine B7-2 transfected P815 cells; assay: Flow cytometry of immunised-mouse sera on poB7-2 transfected P815 cells; format: binding; settings: for recognition (staining) of porcine B7-2 transfected P815 cells by sera: sera of mice immunised with single peptide, FIGS. 17a and 17b
Description: (II) Transfected P815 cells are crucial reagents for the detection of porcine anti-B7-2 antibody in the sera of immunised mice which have undergone the chimeric peptide immunisation regimen. Flow cytometric analysis with control or poB7-2-transfected P815 cells, reflects the specificity of sera for B7-2.
(§1) Peptide ELISAs are used to screen for the presence of anti-peptide antibody in the sera. Peptides are coated to plates by virtue of aldehyde linkages to allow free access of Ab to the peptide (78), Plates are coated with individual peptides or the ova control peptide to enable the identification of specific peptides of interest. To detect reactivity of sera with the native B7-2 molecule expressed on the surface of PoB7-2 transfected P815 cells, flow cytometry is performed following surface staining. Having identified CS peptide of interest (peptide ELISA positive and recognising native B7-2) the sera is used to inhibit in vitro T cell proliferative responses. This determines whether the antibody is a blocking antibody.
(§2) Immunisations involved two groups of mice, one received a pool of all nine B7-2 peptides, and one receiving ova control peptide. The harvested sera were screened by peptide ELISA (FIG. 14a or 14b) which enabled the identification of peptides of interest. […] Peptide 4 and 6 were selected as candidate peptides and used in subsequent immunisation protocol. […] Similar protocols will be followed with peptide 2.

T cell proliferation = T cell proliferation response to whole ovalbumin or OVA 323-339 peptide after immunisation with whole ovalbumin; format: in vivo, C57BL-6 mice; settings: following immunisation with whole ovalbumin; FIG. 13
Description: FIG. 13 represents a comparison of T cell proliferation response to whole ovalbumen or the ovalbumen peptide Ova323-339;
The peptide sequences and amino acid positions for peptides 1-10 relate to the position of the B7-2 peptide sequence within porcine B7-2. The amino acid position for the ova sequence is only indicated for the Ova peptide. A 17 amino acid peptide from chicken egg albumin (ovalbumin) was selected as the T cell epitope, OVA323-339 (ISQAVHAAHAEINEAGR). This epitope was selected on the basis of published reports for the generation of a H-2^b restricted T cell response (76, 77). […] Peptides were generated on a peptide synthesiser (Genosys) and crude peptides were purified by HPLC to greater than 70% purity.

porcine B7-2 peptides = assay: Peptide ELISA of sera from mice immunised with OVA-B7-2 chimeric peptides; format: in vivo, C57BL-6 mice; settings: for level of peptide-specific IgG in the sera of immunised mice: immunisation with peptide 4 or 6, FIGS. 15a and 15b; for binding of antisera to B7 peptide versus ova control by peptide ELISA: sera of mice that received a pool of all nine B7-2 peptides, FIG. 14a or 14b
Description: C57BL-6 mice are immunised with whole ovalbumin in CFA, followed by either control peptide (OVA peptide) or CS peptides (OVA-B7-2 constructs) for three weekly immunisations. Blood is collected following sacrifice and sera prepared using a standard technique. Presence of specific mouse anti-porcine B7-2 IgG and/or IgM Ab is detected by one of two strategies.
as §1, §2

murine CD86 = molecular target: T1, murine CD86 (Mus musculus, UniProt P42082); assay: Inhibition of costimulation by murine CD86 by peptide sera; format: cell-based; settings: FIG. 15b
T1 sequence (P42082 24-309): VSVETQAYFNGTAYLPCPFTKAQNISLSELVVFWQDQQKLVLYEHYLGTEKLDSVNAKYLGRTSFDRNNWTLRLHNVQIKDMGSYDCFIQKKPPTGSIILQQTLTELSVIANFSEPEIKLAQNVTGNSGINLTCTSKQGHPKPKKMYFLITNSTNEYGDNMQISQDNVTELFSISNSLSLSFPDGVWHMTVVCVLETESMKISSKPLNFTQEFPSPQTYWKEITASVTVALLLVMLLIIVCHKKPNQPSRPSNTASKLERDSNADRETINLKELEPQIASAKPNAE

[2] = system: direct mouse anti porcine T cell responses; assay: Inhibition of in vitro T cell proliferative responses by peptide sera; format: cell-based; settings: FIG. 15b
Protocol: as §1

Substance	recognition (staining) of porcine B7-2 transfected P815 cells by sera [1]	staining of untransfected control P815 cells by sera [1]	proliferative response of C57BL-6 mice (H-2b haplotype) (T cell proliferation)	level of peptide-specific IgG in the sera of immunised mice (porcine B7-2 peptides)	binding of antisera to B7 peptide versus ova control by peptide ELISA (porcine B7-2 peptides)	inhibition of costimulation by murine CD86 by sera (murine CD86)	inhibition of direct mouse anti porcine T cell responses by sera [2]	specificity of the sera for the peptide versus ova control (porcine B7-2 peptides; peptide ELISA, FIG. 16)
ISQAVHAAHAEINEAGR [Ova Peptide, control peptide, reference compound]	do not stain	do not stain	mount a proliferative response	–	–	–	–	–
ISQAVHAAHAEINEAGRCSSTQGYPEPQR [Peptide 6]	specifically recognise the native porcine B7-2 molecule	do not stain	–	significant level of IgG	preferential binding to B7 peptide than to ova control	no inhibition	inhibition of direct mouse anti porcine T cell responses	–
ISQAVHAAHAEINEAGRGLVPIHQMS [Peptide 4]	specifically recognise the native porcine B7-2 molecule	do not stain	–	significant level of IgG	preferential binding to B7 peptide than to ova control	no inhibition	inhibition of direct mouse anti porcine T cell responses	specificity of the sera for peptide 4 and not to ova control
ISQAVHAAHAEINEAGRLPCHFTNSQ [Peptide 2]	–	–	–	–	preferential binding to B7 peptide than to ova control	–	–	–
ovalbumin [chicken egg albumin used whole for priming immunisation]	–	–	mount a proliferative response	–	–	–	–	–

Source: patent US20060134124A1, “Immunosuppression” (ML Laboratories PLC, priority 1998, published 2006)
